What was measured:
Assay in all cases: KINOMEscan competition binding
Conditions in all cases: compound 10.0 µM
STK38 (human) = STK38 (human) (UniProt Q15208)
MAP4K3 (human) = MAP4K3 (human) (UniProt Q8IVH8)
TGFBR1 (human) = TGFBR1 (human) (UniProt P36897)
MAST1 (human) = MAST1 (human) (UniProt Q9Y2H9)
SRPK3 (human) = SRPK3 (human) (UniProt Q9UPE1)
CDK7 (human) = CDK7 (human) (UniProt P50613)
MATK (human) = MATK (human) (UniProt P42679)
AXL (human) = AXL (human) (UniProt P30530)
RPS6KA2 KD2 (human) = RPS6KA2 KD2 (human) (UniProt Q15349)
EPHB6 (human) = EPHB6 (human) (UniProt O15197)
PAK4 (human) = PAK4 (human) (UniProt O96013)
[1] = system: PIK3CA (human), P42336 [E542K]
RPS6KA4 KD2 (human) = RPS6KA4 KD2 (human) (UniProt O75676)
LCK (human) = LCK (human) (UniProt P06239)
AKT1 (human) = AKT1 (human) (UniProt P31749)
TXK (human) = TXK (human) (UniProt P42681)
GRK1 (human) = GRK1 (human) (UniProt Q15835)
Sequence of GRK1 (human) (Q15835 whole entry, looked up): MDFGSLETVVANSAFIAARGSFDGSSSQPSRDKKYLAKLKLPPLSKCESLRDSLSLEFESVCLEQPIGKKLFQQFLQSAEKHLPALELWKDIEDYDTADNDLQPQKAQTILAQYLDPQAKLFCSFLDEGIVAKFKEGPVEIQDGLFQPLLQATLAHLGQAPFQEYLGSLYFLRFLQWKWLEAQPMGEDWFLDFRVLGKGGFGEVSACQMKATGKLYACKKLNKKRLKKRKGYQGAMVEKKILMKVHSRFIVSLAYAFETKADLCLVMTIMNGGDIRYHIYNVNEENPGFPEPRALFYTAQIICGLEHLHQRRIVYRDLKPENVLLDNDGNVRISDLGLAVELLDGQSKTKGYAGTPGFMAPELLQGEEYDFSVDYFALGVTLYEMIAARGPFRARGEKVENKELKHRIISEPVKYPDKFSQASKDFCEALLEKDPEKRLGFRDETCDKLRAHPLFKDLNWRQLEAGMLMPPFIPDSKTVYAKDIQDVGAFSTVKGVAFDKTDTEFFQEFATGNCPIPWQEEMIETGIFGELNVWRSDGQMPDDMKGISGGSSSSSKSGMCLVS

[2] = system: PIK3CA (human), P42336 [H1047L]
[3] = system: KIT (human), P10721 [D816V]
PIP5K1A (human) = PIP5K1A (human) (UniProt Q99755)
Sequence of PIP5K1A (human) (Q99755 whole entry, looked up): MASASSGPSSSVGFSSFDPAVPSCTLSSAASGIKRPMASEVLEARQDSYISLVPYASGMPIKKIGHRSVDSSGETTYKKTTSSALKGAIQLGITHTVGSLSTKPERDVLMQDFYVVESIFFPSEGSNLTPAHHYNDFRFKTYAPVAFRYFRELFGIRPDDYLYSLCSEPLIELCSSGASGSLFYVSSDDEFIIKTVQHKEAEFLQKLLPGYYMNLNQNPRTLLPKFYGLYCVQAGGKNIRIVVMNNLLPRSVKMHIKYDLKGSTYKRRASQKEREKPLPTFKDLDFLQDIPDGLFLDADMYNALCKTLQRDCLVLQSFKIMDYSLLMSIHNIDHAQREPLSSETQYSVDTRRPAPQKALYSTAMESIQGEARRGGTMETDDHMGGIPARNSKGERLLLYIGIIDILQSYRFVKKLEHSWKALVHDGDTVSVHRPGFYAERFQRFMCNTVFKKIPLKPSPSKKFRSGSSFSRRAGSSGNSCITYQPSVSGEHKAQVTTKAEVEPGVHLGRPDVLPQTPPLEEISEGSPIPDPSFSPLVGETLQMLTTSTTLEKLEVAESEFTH

AKT3 (human) = AKT3 (human) (UniProt Q9Y243)
ACVR1 (human) = ACVR1 (human) (UniProt Q04771)
IRAK3 (human) = IRAK3 (human) (UniProt Q9Y616)
CDK19 (human) = CDK19 (human) (UniProt Q9BWU1)
DCLK3 (human) = DCLK3 (human) (UniProt Q9C098)
Sequence of DCLK3 (human) (Q9C098 whole entry, looked up): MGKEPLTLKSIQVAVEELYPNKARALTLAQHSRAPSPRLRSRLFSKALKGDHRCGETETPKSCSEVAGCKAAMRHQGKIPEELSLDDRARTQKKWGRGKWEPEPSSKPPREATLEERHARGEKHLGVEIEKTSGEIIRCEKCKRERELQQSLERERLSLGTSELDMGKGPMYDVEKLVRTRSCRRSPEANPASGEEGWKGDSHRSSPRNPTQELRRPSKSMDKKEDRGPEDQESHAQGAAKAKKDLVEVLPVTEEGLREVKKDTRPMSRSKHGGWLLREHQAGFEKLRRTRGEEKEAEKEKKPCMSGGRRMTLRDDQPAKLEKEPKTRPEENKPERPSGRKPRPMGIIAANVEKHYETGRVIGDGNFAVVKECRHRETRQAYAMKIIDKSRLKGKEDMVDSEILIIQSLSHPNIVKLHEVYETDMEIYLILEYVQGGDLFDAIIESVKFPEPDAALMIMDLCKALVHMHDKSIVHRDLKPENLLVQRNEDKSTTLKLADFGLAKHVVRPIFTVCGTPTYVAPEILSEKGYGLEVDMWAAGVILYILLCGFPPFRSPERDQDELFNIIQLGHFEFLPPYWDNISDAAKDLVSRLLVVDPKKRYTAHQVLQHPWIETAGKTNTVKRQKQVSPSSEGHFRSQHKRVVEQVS

BMP2K (human) = BMP2K (human) (UniProt Q9NSY1)
CSNK1A1L (human) = CSNK1A1L (human) (UniProt Q8N752)
Sequence of CSNK1A1L (human) (Q8N752 whole entry, looked up): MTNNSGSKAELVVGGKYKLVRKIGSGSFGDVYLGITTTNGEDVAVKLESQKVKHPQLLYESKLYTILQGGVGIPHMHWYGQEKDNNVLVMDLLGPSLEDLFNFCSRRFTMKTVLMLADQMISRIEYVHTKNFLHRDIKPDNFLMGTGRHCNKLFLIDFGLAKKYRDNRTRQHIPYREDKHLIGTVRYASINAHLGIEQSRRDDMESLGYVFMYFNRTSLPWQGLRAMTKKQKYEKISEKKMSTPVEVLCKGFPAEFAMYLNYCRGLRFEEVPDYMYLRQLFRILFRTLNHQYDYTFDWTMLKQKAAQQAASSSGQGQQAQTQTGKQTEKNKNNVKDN

CSNK1G2 (human) = CSNK1G2 (human) (UniProt P78368)
Sequence of CSNK1G2 (human) (P78368 whole entry, looked up): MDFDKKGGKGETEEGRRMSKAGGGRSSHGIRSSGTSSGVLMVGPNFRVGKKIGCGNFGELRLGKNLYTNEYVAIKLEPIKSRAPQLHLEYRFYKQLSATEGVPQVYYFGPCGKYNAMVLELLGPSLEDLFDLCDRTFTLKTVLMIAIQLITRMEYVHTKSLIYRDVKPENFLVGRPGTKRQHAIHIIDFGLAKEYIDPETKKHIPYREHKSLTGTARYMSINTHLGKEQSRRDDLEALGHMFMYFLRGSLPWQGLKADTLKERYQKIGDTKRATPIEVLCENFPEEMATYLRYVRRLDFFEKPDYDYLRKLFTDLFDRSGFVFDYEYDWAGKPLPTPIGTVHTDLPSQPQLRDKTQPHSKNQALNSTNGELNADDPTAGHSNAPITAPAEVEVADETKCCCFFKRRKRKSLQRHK

CDK14 (human) = CDK14 (human) (UniProt O94921)
PAK6 (human) = PAK6 (human) (UniProt Q9NQU5)
MAP3K2 (human) = MAP3K2 (human) (UniProt Q9Y2U5)
YES1 (human) = YES1 (human) (UniProt P07947)
TBK1 (human) = TBK1 (human) (UniProt Q9UHD2)
ACVR2B (human) = ACVR2B (human) (UniProt Q13705)
CHUK (human) = CHUK (human) (UniProt O15111)
PLK3 (human) = PLK3 (human) (UniProt Q9H4B4)
MAPK11 (human) = MAPK11 (human) (UniProt Q15759)
Sequence of MAPK11 (human) (Q15759 whole entry, looked up): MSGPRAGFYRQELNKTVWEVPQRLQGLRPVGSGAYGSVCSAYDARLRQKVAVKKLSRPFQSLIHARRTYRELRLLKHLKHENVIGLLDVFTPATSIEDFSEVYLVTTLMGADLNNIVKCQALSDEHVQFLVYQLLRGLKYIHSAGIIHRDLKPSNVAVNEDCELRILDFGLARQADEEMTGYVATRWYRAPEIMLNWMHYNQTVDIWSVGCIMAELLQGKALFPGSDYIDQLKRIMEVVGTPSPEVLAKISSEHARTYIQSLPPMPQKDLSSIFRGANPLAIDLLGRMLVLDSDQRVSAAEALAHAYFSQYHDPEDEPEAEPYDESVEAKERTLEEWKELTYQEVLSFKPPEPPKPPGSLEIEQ

[4] = system: MET (human), P08581 [Y1235D]
[5] = system: FLT3 (human), P36888 [N841I]
RIOK2 (human) = RIOK2 (human) (UniProt Q9BVS4)
PDPK1 (human) = PDPK1 (human) (UniProt O15530)
RET (human) = RET (human) (UniProt P07949)

Sequence of CDK7 (human) (P50613 whole entry, looked up): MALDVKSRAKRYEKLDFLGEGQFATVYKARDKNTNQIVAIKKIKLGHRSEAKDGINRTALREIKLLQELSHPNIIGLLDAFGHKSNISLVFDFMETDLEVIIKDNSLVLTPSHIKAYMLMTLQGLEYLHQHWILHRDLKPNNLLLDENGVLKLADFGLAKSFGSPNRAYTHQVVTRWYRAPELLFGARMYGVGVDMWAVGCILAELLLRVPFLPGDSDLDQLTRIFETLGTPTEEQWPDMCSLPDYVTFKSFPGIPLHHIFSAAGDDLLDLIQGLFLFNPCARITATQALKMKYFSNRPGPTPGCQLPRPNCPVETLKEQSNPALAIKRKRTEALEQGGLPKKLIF
Sequence of MAP4K3 (human) (Q8IVH8 whole entry, looked up): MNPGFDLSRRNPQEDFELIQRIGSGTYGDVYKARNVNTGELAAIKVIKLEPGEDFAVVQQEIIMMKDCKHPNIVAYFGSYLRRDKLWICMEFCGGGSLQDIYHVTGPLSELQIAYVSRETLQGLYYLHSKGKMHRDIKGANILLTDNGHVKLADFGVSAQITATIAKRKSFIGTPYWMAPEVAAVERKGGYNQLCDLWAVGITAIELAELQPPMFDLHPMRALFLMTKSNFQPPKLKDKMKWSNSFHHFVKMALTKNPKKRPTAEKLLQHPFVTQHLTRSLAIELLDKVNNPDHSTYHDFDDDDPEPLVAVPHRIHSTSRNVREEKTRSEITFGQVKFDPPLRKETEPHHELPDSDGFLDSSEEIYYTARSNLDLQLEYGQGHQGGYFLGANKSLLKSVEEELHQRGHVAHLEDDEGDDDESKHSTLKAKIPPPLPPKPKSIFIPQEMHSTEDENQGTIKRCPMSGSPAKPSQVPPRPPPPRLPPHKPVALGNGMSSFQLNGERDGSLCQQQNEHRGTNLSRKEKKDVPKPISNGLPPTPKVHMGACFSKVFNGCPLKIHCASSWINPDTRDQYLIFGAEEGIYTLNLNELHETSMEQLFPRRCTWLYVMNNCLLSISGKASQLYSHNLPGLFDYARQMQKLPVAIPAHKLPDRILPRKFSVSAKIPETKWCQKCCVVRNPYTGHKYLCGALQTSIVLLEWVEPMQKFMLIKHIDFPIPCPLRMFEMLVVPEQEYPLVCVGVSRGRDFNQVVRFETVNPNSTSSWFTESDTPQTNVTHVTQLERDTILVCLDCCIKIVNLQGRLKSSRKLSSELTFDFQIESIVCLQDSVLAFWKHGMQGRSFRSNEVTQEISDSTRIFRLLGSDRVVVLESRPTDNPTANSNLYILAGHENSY
Sequence of AXL (human) (P30530 whole entry, looked up): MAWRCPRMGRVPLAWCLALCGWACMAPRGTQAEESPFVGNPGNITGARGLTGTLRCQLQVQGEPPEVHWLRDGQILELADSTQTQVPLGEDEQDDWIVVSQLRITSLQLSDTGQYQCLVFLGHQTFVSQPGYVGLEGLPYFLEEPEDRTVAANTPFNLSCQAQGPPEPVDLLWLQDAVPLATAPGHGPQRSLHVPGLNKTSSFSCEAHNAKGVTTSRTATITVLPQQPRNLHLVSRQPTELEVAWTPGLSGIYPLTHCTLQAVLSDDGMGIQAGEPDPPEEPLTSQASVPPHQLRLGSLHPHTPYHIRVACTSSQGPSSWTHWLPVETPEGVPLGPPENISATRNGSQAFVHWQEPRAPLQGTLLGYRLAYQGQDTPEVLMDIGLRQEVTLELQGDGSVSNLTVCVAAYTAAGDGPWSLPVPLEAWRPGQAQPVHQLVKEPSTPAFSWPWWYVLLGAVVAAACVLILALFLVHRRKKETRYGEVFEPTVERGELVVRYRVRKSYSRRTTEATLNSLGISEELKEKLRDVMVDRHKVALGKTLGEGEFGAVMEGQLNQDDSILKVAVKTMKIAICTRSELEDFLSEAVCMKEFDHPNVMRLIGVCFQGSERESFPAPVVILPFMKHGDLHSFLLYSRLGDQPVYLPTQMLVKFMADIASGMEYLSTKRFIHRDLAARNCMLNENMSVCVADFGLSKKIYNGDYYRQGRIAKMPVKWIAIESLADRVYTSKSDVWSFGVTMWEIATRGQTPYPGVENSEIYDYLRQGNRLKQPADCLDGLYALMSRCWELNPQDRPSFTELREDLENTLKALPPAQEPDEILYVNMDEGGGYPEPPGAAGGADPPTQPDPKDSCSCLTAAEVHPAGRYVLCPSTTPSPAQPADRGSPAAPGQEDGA

kinase still bound, per cent of control (STK38 (human)): 100%
kinase still bound, per cent of control (MAP4K3 (human)): 70%
kinase still bound, per cent of control (TGFBR1 (human)): 96%
kinase still bound, per cent of control (MAST1 (human)): 82%
kinase still bound, per cent of control (SRPK3 (human)): 100%
kinase still bound, per cent of control (CDK7 (human)): 43%
kinase still bound, per cent of control (MATK (human)): 75%
kinase still bound, per cent of control (AXL (human)): 100%
kinase still bound, per cent of control (RPS6KA2 KD2 (human)): 78%
kinase still bound, per cent of control (EPHB6 (human)): 100%
kinase still bound, per cent of control (PAK4 (human)): 82%
kinase still bound, per cent of control [1]: 100%
kinase still bound, per cent of control (RPS6KA4 KD2 (human)): 96%
kinase still bound, per cent of control (LCK (human)): 96%
kinase still bound, per cent of control (AKT1 (human)): 100%
kinase still bound, per cent of control (TXK (human)): 100%
kinase still bound, per cent of control (GRK1 (human)): 83%
kinase still bound, per cent of control [2]: 100%
kinase still bound, per cent of control [3]: 89%
kinase still bound, per cent of control (PIP5K1A (human)): 100%
kinase still bound, per cent of control (AKT3 (human)): 100%
kinase still bound, per cent of control (ACVR1 (human)): 100%
kinase still bound, per cent of control (IRAK3 (human)): 100%
kinase still bound, per cent of control (CDK19 (human)): 100%
kinase still bound, per cent of control (DCLK3 (human)): 66%
kinase still bound, per cent of control (BMP2K (human)): 58%
kinase still bound, per cent of control (CSNK1A1L (human)): 100%
kinase still bound, per cent of control (CSNK1G2 (human)): 100%
kinase still bound, per cent of control (CDK14 (human)): 29%
kinase still bound, per cent of control (PAK6 (human)): 86%
kinase still bound, per cent of control (MAP3K2 (human)): 100%
kinase still bound, per cent of control (YES1 (human)): 100%
kinase still bound, per cent of control (TBK1 (human)): 90%
kinase still bound, per cent of control (ACVR2B (human)): 100%
kinase still bound, per cent of control (CHUK (human)): 84%
kinase still bound, per cent of control (PLK3 (human)): 97%
kinase still bound, per cent of control (MAPK11 (human)): 98%
kinase still bound, per cent of control [4]: 85%
kinase still bound, per cent of control [5]: 47%
kinase still bound, per cent of control (RIOK2 (human)): 95%
kinase still bound, per cent of control (PDPK1 (human)): 100%
kinase still bound, per cent of control (RET (human)): 100%
Structure (SMILES): Cn1cc(C2=C(c3ccc(Cl)cc3Cl)C(=O)NC2=O)c2ccccc21
